Test results as given in US20160102074A1, “SUBSTITUTED AMIDE COMPOUNDS” (PFIZER INC., priority 2014, published 2016).

assay: Human hepatocyte in vitro liver metabolism assay (HHep); assay type: in vitro ADME; conditions: cryopreserved human hepatocytes, 0.5 million viable cells per mL, 37° C.
Description: In particular, the human intestinal S9 fraction in vitro stability assay (HInt) and human hepatocyte in vitro liver metabolism assay (HHep) provide important information regarding the clearance and metabolic activation of these compounds. The human intestinal S9 fraction in vitro stability assay provides a surrogate measure of compound metabolism as it travels across the gut wall; compounds with low CLint values more likely to enter the portal vein and be exposed to the liver. Likewise, the human hepatocyte in vitro liver metabolism assay provides a surrogate measure of compound metabolism when exposed to liver; compounds with high CLint values are more likely to be metabolically activated. For compounds such as prodrugs that release an active species on metabolic activation, high CLint values in human hepatocytes are desirable. Active compounds released in this way inhibit PCSK9 and show improved atherosclerotic properties by increased exposure of the active metabolite in the liver.
Human Hepatocyte In Vitro Liver Metabolism Assay (HHep)
In order to determine the rate of metabolism leading to conversion of prodrug into active drug form, experiments utilizing human hepatocytes were performed. Hepatocytes are an ideal in vitro system to monitor hepatic metabolism since these intact cells contain all the hepatic enzymes found in vivo, including phase I enzymes (such as CYPs, aldehyde oxidases, esterases and MAOs) and phase II enzymes (such as UDP-glucuronyltransferases and sulfotransferases). The assay utilizes isolated hepatocytes from human donors incubated with the compound of interest in conditions mimicking physiological conditions where the metabolic stability of the compound is investigated. The experimental protocol is as follows. Vials of cryopreserved human hepatocytes (stored in liquid nitrogen until used for testing) were thawed in a water bath (37 to 40° C.) until nearly thawed, transferred to a conical tube, resuspended by inversion and subsequently centrifuged at 50-90 g at room temperature for 5 min. The supernatant was then discarded and the pellet loosened by gently tapping the end of the conical tube. William's E media was then added to achieve the desired final cell density (0.5 million viable cells per mL), and the hepatocytes were then resuspended in this fresh media. The viable cell count was then determined using the trypan blue exclusion method where a minimum viability of 70% was obtained. At this point, new molecular entities (NME's) were prepared for testing. In brief, the NME was diluted with DMSO such that final incubation concentration of NME was […] and final DMSO content was 0.1%. Assays were conducted in a 384-well format at 37° C. in an incubator held at 95% air to 5% CO2 at 95% relative humidity. The per-well incubation total incubation volume was 20 μL including hepatocytes and NME. The assay was performed using 7 hepatocyte plates where the plates were designated as sampling times 0, 15, 30, 60, 120 and 240 min and include hepatocytes and NME, and a no NME control plate with hepatocytes that was taken at 240 min. Two additional no hepatocyte containing control plates were prepared and subsequently sampled at 0 and 240 min, respectively, and were identical to the hepatocyte containing plates with respect to NME and media composition. The incubations were stopped using acetonitrile and prepared for analytical testing using liquid chromatography mass-spectrometry (LC/MS) detection. Each NME was optimized for LC/MS analytical conditions. A disappearance curve was generated from the sample time point analytical peak areas and compared to control plate results (control plates allow artifacts such as non-hepatocyte mediated decline (e.g., media/condition instability for the NME) to be determined). The slope of the disappearance curve was used to determine metabolic stability expressed CLint. […]

Compound	HHep CLint [μL/min/mil]
CCOC(=O)O[C@@H](C)n1nnnc1-c1c(-c2ccc(C(=O)N(c3ncccc3C)[C@@H]3CCCNC3)cc2)cnn1C [Example 5a, ethyl (S)-1-{5-[1-methyl-4-(4-{(3-methylpyridin-2-yl)[(3R)-piperidin-3-yl]carbamoyl}phenyl)-1H-pyrazol-5-yl]-1H-tetrazol-1-yl}ethyl carbonate]	57.2
CCOC(=O)O[C@H](C)n1nnnc1-c1c(-c2ccc(C(=O)N(c3ncccc3C)[C@@H]3CCCNC3)cc2)cnn1C [Example 5b, ethyl (R)-1-{5-[1-methyl-4-(4-{(3-methylpyridin-2-yl)[(3R)-piperidin-3-yl]carbamoyl}phenyl)-1H-pyrazol-5-yl]-1H-tetrazol-1-yl}ethyl carbonate]	85.0
CCOC(=O)O[C@@H](C)n1nnnc1-c1c(-c2ccc(C(=O)N(c3ncccc3Cl)[C@@H]3CCCNC3)cc2)cnn1C [Example 6, ethyl (S)-1-{5-[1-methyl-4-(4-{(3-chloropyridin-2-yl)[(3R)-piperidin-3-yl]carbamoyl}phenyl)-1H-pyrazol-5-yl]-1H-tetrazol-1-yl}ethyl carbonate]	71.2
CCOC(=O)O[C@@H](C)n1nnnc1-c1c(-c2ccc(C(=O)N(c3ncccc3Cl)[C@@H]3CCCNC3)cc2F)cnn1C [Example 7, ethyl (S)-1-{5-[4-(4-{(3-chloropyridin-2-yl)[(3R)-piperidin-3-yl]carbamoyl}-2-fluorophenyl)-1-methyl-1H-pyrazol-5-yl]-1H-tetrazol-1-yl}ethyl carbonate]	97.6
CCOC(=O)O[C@@H](C)n1nnnc1-c1c(-c2ccc(C(=O)N(c3ncccc3C)[C@@H]3CCCNC3)cc2F)cnn1C [Example 8, ethyl (S)-1-{5-[4-(4-{(3-methylpyridin-2-yl)[(3R)-piperidin-3-yl]carbamoyl}-2-fluorophenyl)-1-methyl-1H-pyrazol-5-yl]-1H-tetrazol-1-yl}ethyl carbonate]	51.3
CCOC(=O)O[C@@H](C)n1nnnc1-c1c(-c2ccc(C(=O)N(c3ncccc3C)[C@@H]3CCCNC3)nc2)cnn1C [Example 9, ethyl (S)-1-{5-[1-methyl-4-(6-{(3-methylpyridin-2-yl)[(3R)-piperidin-3-yl]carbamoyl}pyridin-3-yl)-1H-pyrazol-5-yl]-1H-tetrazol-1-yl}ethyl carbonate]	7.0
CCOC(=O)O[C@@H](C)n1nnnc1-c1c(-c2ccc(C(=O)N(c3ncccc3Cl)[C@@H]3CCCNC3)nc2)cnn1C [Example 10, ethyl (S)-1-{5-[4-(6-{(3-chloropyridin-2-yl)[(3R)-piperidin-3-yl]carbamoyl}pyridin-3-yl)-1-methyl-1H-pyrazol-5-yl]-1H-tetrazol-1-yl}ethyl carbonate]	11.8
CCOC(=O)O[C@H](C)n1nnnc1-c1c(-c2ccc(C(=O)N(c3ncccc3Cl)[C@@H]3CCCNC3)cc2F)cnn1C [Example 11, ethyl (R)-1-{5-[4-(4-{(3-chloropyridin-2-yl)[(3R)-piperidin-3-yl]carbamoyl}-2-fluorophenyl)-1-methyl-1H-pyrazol-5-yl]-1H-tetrazol-1-yl}ethyl carbonate]	>170
